Measurements reported in patent US4863916A, “Substituted 6-hydroxymethyl-carbapenem antibiotics” (Bayer Aktiengesellschaft, priority 1986, dated 1989).

Key:
Experiment in all cases: Antibacterial action, minimum inhibitory concentration (MIC), agar method on Iso-sensitest agar
Assay type in all cases: cell-based
[1] = test system: Staph. 133
Description: (§1) The agar solution method was used for determining the antibacterial action, an Iso-sensitest agar being used and the minimum inhibitory concentration (MIC) of the sample being expressed in μg/ml of the nutrient medium (Table).

[2] = test system: Staph. 24455
Description: as §1

[3] = test system: Staph. E 25185
Description: as §1

MIC [1]: 0.5 µg/mL | MIC [2]: 0.5 µg/mL | MIC [3]: 1 µg/mL
Compound: COC(=O)[C@@H](O)[C@H]1C(=O)N2C(C(=O)O)=C(Sc3ccncc3)C[C@H]12 [Example 14, Sodium (5R,6S)-6-[(1S)-1-hydroxy-1-methoxycarbonyl]methyl-7-oxo-3-(4-pyridinylthio)-1-azabicyclo[3.2.0]hept-2encarboxylate]
